We go through two compounds from patent publication US10722436B2, “Topical compositions” (MARY KAY INC., priority 2015, dated 2020).

Assay [1] relates to B16-F1 melanocytes. In words: B16 Pigmentation Assay (melanin secretion). The settings on record: B16-F1 cells, 6 days. The format is cell-based, mouse. Here is the method: Melanogenesis is the process by which melanocytes produce melanin, a naturally produced pigment that imparts color to skin, hair, and eyes. Inhibiting melanogenesis is beneficial to prevent skin darkening and lighten dark spots associated with aging. Melanogenesis in B16 cells was determined in the presence or absence of niacinamide by measuring melanin secretion. It was determined that niacinamide inhibits melanogenesis by 30%.
Melanogenesis was determined using B16-F1 melanocytes (ATCC), an immortalized mouse melanoma cell line. The endpoint of this assay was a spectrophotometric measurement of melanin production and cellular viability. B16-F1 melanocytes, were cultivated in standard DMEM growth medium with 10% fetal bovine serum (Mediatech) at 37° C. in 10% CO2 and then treated with or without niacinamide for 6 days. Following incubation, melanin secretion was measured by absorbance at 405 nm and cellular viability was quantified.

The subject of assay [2] is mushroom tyrosinase. Description: Mushroom Tyrosinase Activity Assay. The format is biochemical. The settings on record: substrate L-Dopa. The procedure:
In mammalian cells, tyrosinase catalyzes two steps in the multi-step biosynthesis of melanin pigments from tyrosine (and from the polymerization of dopachrome). Tyrosinase is localized in melanocytes and produces melanin (aromatic quinone compounds) that imparts color to skin, hair, and eyes. The activity of tyrosinase on its substrate L-Dopa in the presence or absence of oligopeptide-1 was determined using a colorimetric mushroom tyrosinase activity assay. It was determined that oligopeptide-1 inhibits tyrosinase by 40%. Tyrosinase activity was assayed by measuring the ability of purified mushroom tyrosinase (Sigma) to oxidize its substrate, L-Dopa (Fisher), in the presence or absence of oligopeptide-1. Oxidation of L-DOPA by the tyrosinase produced a pigment that was evaluated by colorimetric plate reading at 490 nm. The percent inhibition of mushroom tyrosinase activity was calculated and compared to non-treated controls to determine the ability of test ingredients to inhibit the activity of purified enzyme. Test inhibition was compared with that of the known tyrosinase inhibitor kojic acid (Sigma).

Assay [3] relates to procollagen peptide production in human epidermal fibroblasts. In words: Collagen Stimulation Assay (procollagen peptide ELISA). The format is cell-based. The settings on record: 3 days. The procedure:
Collagen is an extracellular matrix protein critical for skin structure. Increased synthesis of collagen helps improve skin firmness and elasticity. Collagen stimulation was determined using a sandwich enzyme linked immuno-sorbant assay (ELISA) from Takara (#MK101) by measuring production of procollagen peptide (a precursor to collagen) in human epidermal fibroblasts incubated in the presence or absence of oligopeptide-1 or Prunus mume extract. It was determined that oligopeptide-1 increased collagen stimulation by 20% and Prunus mume extract increased collagen stimulation by 71%.
Collagen stimulation can be monitored by a spectrophotometric measurement that reflects the presence of procollagen peptide and cellular viability. The assay employs the quantitative sandwich enzyme immunoassay technique whereby a monoclonal antibody specific for procollagen peptide has been pre-coated onto microplate wells. […] Following incubation, cell culture medium was collected (samples and controls) and the amount of procollagen peptide secretion was quantified using a sandwich enzyme linked immuno-sorbant assay (ELISA) from Takara (#MK101). […] The color development was stopped and the color development was measured at 450 nm by a microplate reader.

In assay [4] the test system is elastin production in cultured human fibroblasts. In words: Elastin Stimulation Assay. In kind it is cell-based. The procedure:
Elastin is a connective tissue protein that helps skin resume shape after stretching or contracting. Elastin is also an important load-bearing protein used in places where mechanical energy is required to be stored. Elastin is made by linking many soluble tropoelastin protein molecules, in a reaction catalyzed by lysyl oxidase. Elastin production was determined in cultured human fibroblasts incubated in the presence or absence of oligopeptide-1. It was determined that oligopeptide-1 increased elastin production by 23%.
Elastin secretion and elastin fibers were monitored by staining of cultured human fibroblasts using antibodies directed against elastin. Human fibroblasts were treated with or without oligopeptide-1. Following incubation, elastin content was measured using immunofluorescent antibodies directed against elastin.

Assay [5] has as its system TNF-α production in keratinocytes. In words: Inhibition of Tumor Necrosis Factor Alpha (ELISA, PMA-treated keratinocytes). The format is cell-based, human. The settings on record: PMA 10 ng/ml, 6 hours. Here is the method: TNF-α is the prototype ligand of the TNF superfamily. It is a pleiotropic cytokine that plays a central role in inflammation. Increase in its expression is associated with an up regulation in pro-inflammatory activity. The bioassay used to analyze the effect of oligopeptide-1 and Opuntia ficus-indica extract used a spectrophotometric measurement that reflects the presence of TNF-α and cellular viability. It was determined that oligopeptide-1 and Opuntia ficus-indica extract inhibits TNF-α production in keratinocytes by 40% and 50%.
Subconfluent normal human adult keratinocytes (Cascade Biologics) cultivated in EpiLife standard growth medium (Cascade Biologics) at 37° C. in 5% CO2, were treated with phorbol 12-myristate 13-acetate (PMA, 10 ng/ml, Sigma Chemical, #P1585-1MG) and either oligopeptide-1 or Opuntia ficus-indica extract (treated samples) or no additional treatment (untreated sample) for 6 hours. PMA causes a dramatic increase in TNF-α secretion which peaks at 6 hours after treatment. Following incubation, cell culture medium was collected and the amount of TNF-a secretion quantified using a sandwich enzyme linked immuno-sorbant assay (ELISA) from R&D Systems (#DTA00C).
Briefly, the ELISA assay employed the quantitative sandwich enzyme immunoassay technique whereby a monoclonal antibody specific for TNF-α was been pre-coated onto a microplate. […]

Where no end group is shown, it is not given here. The star is where a group is joined. Hexanoyl = CCCCCC(=O)*

Turning to `NC(=O)c1cccnc1` [Niacinamide, 3-Pyridinecarboxamide], the “inhibits melanogenesis by” value in assay [1] was 30%. Besides, the “Inhibition of Melanogenesis: Activity” value in assay [1] (negative = inhibition) is reported as −30%.

As for “caprooyl-Gly-His-Lys-Lys (Hexanoyl-GHKK) [Oligopeptide-1, modified tetrapeptide; Lucas Meyer, trade name ChroNOline]”, the “inhibits tyrosinase by” value in assay [2] came to 40%. The “Inhibition of Tyrosinase: Activity” value in assay [2] (negative = inhibition) is recorded as −40%. For the same compound, in assay [3], the “increased collagen stimulation by” value is 20%. Further, the “Collagen Stimulation: Activity” value in assay [3] (positive = increase) is reported as “+20%”. For the same compound, in assay [4], the “increased elastin production by” value is recorded as 23%. For the same compound, the “Elastin Production: Activity” value in assay [4] (positive = increase) is “+23%”. Besides, the “inhibits TNF-α production in keratinocytes by” value in assay [5] was determined as 40%. The “Inhibition of TNF-α: Activity” value in assay [5] (negative = inhibition) is reported as −40%.
